Structures can show the parent of a compound that is named as a salt.
Assay: pH dependence of esmolol degradation in solution
Format: physicochemical
Method: While lower concentration (e.g., 10 mg/ml) ready-to-use compositions of esmolol require an additional buffer to maintain pH, higher concentrations of esmolol in the present invention compositions, provide self-buffering capacity to the composition. […] The concentrate can include a pharmaceutically acceptable buffer to aid in maintaining the pH in a range of from about 3.5 to about 7.0. Preferably, the pH is maintained between about 4.5 and about 5.5, more preferably between 4.9 and 5.1.

COC(=O)CCc1ccc(OCC(O)CNC(C)C)cc1 (stereo not shown) [esmolol, methyl-3-[4-(2-hydroxy-3-isopropylamino)propoxy]phenylpropionate hydrochloride]
pH at which esmolol is most stable: about 5.0

Reference: US20080293814A1, “CONCENTRATE ESMOLOL” (priority 2007, published 2008)
